60 molecules from paper PMC9995496, “A screen for MeCP2-TBL1 interaction inhibitors using a luminescence-based assay” (Scientific Reports, 2023) can be followed below.

The test relates to PRKACA-PRKAR2A interaction (SmBiT-PRKACA / LgBiT-PRKAR2A), protein kinase A. Details: NanoLuc complementation counter-screen in cell extract, PRKACA with PRKAR2A, loss of luminescence, detects NanoLuc interference. The following applies: counter-screen for NanoLuc interference, 0.5 h, 20 µM, inhibitor. On the technique in general: Counterscreens check selectivity or assay interference.

Where a name gives a salt, the structure may show the parent alone. Read-outs that look alike come from different tables or passages of the source.

For `CCC(=O)NCC[C@@H]1CCc2ccc3c(c21)CCO3` [UM0121254:03, Ramelteon], the “Inh (PKA)” value was 6.005%.

Consider `COc1ccnc(C[S+]([O-])c2nc3cc(OC(F)F)ccc3[nH]2)c1OC` (stereo not drawn) [UM0121277:03, Pantoprazole], for which the “Inh (PKA)” value is -0.2371%.

Take `Cc1ccc(-c2cc(C(F)(F)F)nn2-c2ccc(S(N)(=O)=O)cc2)cc1` [UM0121289:03, Celecoxib]: the “Inh (PKA)” value came out at 16.21%.

For the molecule `Cc1onc(-c2ccccc2)c1-c1ccc(S(N)(=O)=O)cc1` [UM0121300:03, Valdecoxib], the “Inh (PKA)” value was 9.885%.

With `CN(CCOc1ccc(CC2SC(=O)NC2=O)cc1)c1ccccn1` (stereo not drawn) [UM0121306:03, Rosiglitazone], the “Inh (PKA)” value is on record as 12.71%.

For the molecule `CN(C)CCc1c[nH]c2ccc(C[C@H]3COC(=O)N3)cc12` [UM0121308:03, Zolmitriptan], the “Inh (PKA)” value is on record as -0.4605%.

Regarding `CCOC(=O)[C@H](CCc1ccccc1)N[C@H]1CCc2ccccc2N(CC(=O)O)C1=O` [UM0121340:03, Benazepril HCl], the “Inh (PKA)” value is reported as -0.4329%.

Regarding `O=C(O)CC(O)(CC(=O)O)C(=O)O` [UM0121350:03, Lithium Citrate], the “Inh (PKA)” value is on record as -1.116%.

For `Oc1c(Cl)cc(Cl)c(Cl)c1Cc1c(O)c(Cl)cc(Cl)c1Cl` [UM0121388:04, Hexachlorophene], the “Inh (PKA)” value is 52.78%.

For the molecule `CC[C@H]1OC(=O)[C@H](C)[C@@H](O[C@H]2C[C@@](C)(OC)[C@@H](O)[C@H](C)O2)[C@H](C)[C@@H](O[C@@H]2O[C@H](C)C[C@H](N(C)C)[C@H]2O)[C@](C)(O)C[C@@H](C)CN(C)[C@H](C)[C@@H](O)[C@]1(C)O` [UM0121404:03, Azithromycin], the “Inh (PKA)” value is 0.6112%.

For the molecule `CC[C@H]1OC(=O)[C@H](C)[C@@H](O[C@H]2C[C@@](C)(OC)[C@@H](O)[C@H](C)O2)[C@H](C)[C@@H](O[C@@H]2O[C@H](C)C[C@H](N(C)C)[C@H]2O)[C@](C)(OC)C[C@@H](C)C(=O)[C@H](C)[C@@H](O)[C@]1(C)O` [UM0121462:03, Clarithromycin], the “Inh (PKA)” value stood at 0.9252%.

On to `COC(=O)N[C@H](C(=O)N1CCC[C@H]1c1ncc(-c2ccc(-c3ccc(-c4cnc([C@@H]5CCCN5C(=O)[C@@H](NC(=O)OC)C(C)C)[nH]4)cc3)cc2)[nH]1)C(C)C` [UM0125917:02, Daclatasvir (BMS-790052)], for which the “Inh (PKA)” value is 3.854%.

In the case of `O=c1cc(-c2cccc3c2Sc2ccccc2S3)oc(N2CCOCC2)c1` [UM0127803:03, KU 55933], the “Inh (PKA)” value amounted to 14.3%.

Consider `CC(C)(C)c1cc(C=C(C#N)C#N)cc(Br)c1O` [UM0127805:02, AG-1024], for which the “Inh (PKA)” value is 81.26%.

Regarding `O=c1[nH]c2ccccc2n1C1CCN(Cc2ccc(-c3[nH]c4cc5ncnc5cc4nc3-c3ccccc3)cc2)CC1` [UM0127809:02, AKT inhibitor VIII], the “Inh (PKA)” value was found to be 16.69%.

Turning to `c1cc(-c2cnn3cc(-c4ccc(OCCN5CCCCC5)cc4)cnc23)ccn1` [UM0127814:02, Dorsomorphin], the “Inh (PKA)” value was determined as 19.2%.

Turning to `CN(C)CCCn1cc(C2=C(c3c[nH]c4ccccc34)C(=O)NC2=O)c2ccccc21` [UM0127819:02, GF 109203X], the “Inh (PKA)” value amounted to 67.69%.

Regarding `NC(=O)c1ccc(-c2nc(-c3ccc4c(c3)OCCO4)c(-c3ccccn3)[nH]2)cc1` [UM0127827:02, D4476], the “Inh (PKA)” value was determined as 37.52%.

Regarding `COc1ccc(CNc2nc(N(CCO)CCO)nc3c2ncn3C(C)C)cc1` [UM0127838:02, CVT-313], the “Inh (PKA)” value is 6.845%.

In the case of `Nc1[nH]nc2nnc(-c3c(-c4ccccc4)nn4ccccc34)cc12` [UM0127848:03, FR 180204], the “Inh (PKA)” value is 1.354%.

For `COc1ccc(C(=O)Nc2sc3c(c2C(N)=O)CCCC3)cc1OC` [UM0127852:02, TCS 359], the “Inh (PKA)” value worked out at 19.65%.

For `COc1ccc(COc2ccc(Cc3cnc(N)nc3N)cc2OC)cc1` [UM0127855:02, GW2580], the “Inh (PKA)” value was found to be 7.237%.

For the molecule `Cn1sc(=O)n(Cc2ccccc2)c1=O` [UM0127856:02, TDZD-8], the “Inh (PKA)” value came out at 41.7%.

`COc1ccc(CNC(=O)Nc2ncc([N+](=O)[O-])s2)cc1` [UM0127858:02, AR-A014418]: the “Inh (PKA)” value amounted to 66.01%.

Regarding `Nc1cccc(-c2cc3c(Oc4cccc(O)c4)ncnc3[nH]2)c1` [UM0127862:03, TWS119], the “Inh (PKA)” value stood at 24.46%.

In the case of `COc1ccc2c(c1)c(C1=C(c3c[nH]c4ccccc34)C(=O)NC1=O)cn2CCCN(C)C` [UM0127865:02, Go 6983], the “Inh (PKA)” value is reported as 49.99%.

On to `NC(=O)Nc1sc(-c2ccc(F)cc2)cc1C(N)=O` [UM0127870:03, TPCA-1], for which the “Inh (PKA)” value was 19.86%.

For the molecule `COc1ccc(Cl)cc1NC(=O)Nc1cc(C)nc2ccccc12` [UM0127873:03, PQ 401], the “Inh (PKA)” value was 19.94%.

With `O=C(Nc1nc2ccccc2n1CCN1CCOCC1)c1cccc([N+](=O)[O-])c1` [UM0127874:03, IRAK-1-4 Inhibitor I], the “Inh (PKA)” value is given as 12.44%.

In the case of `CC(C)(C)c1nc2c3cc[nH]c(=O)c3c3cc(F)ccc3c2[nH]1` [UM0127875:02, Pyridone 6], the “Inh (PKA)” value was 10.77%.

Take `COc1cc2ncnc(Nc3ccc(O)c(Br)c3)c2cc1OC` [UM0127876:02, WHI-P154]: the “Inh (PKA)” value was determined as 9.14%.

`O=c1cc(N2CCOCC2)oc2c(-c3ccccc3)cccc12` [UM0127884:02, LY 294002]: the “Inh (PKA)” value came to 0.5276%.

Regarding `N#C/C(=C(/N)Sc1ccc(N)cc1)c1ccccc1C(F)(F)F` [UM0127888:02, SL-327], the “Inh (PKA)” value was 49.94%.

As for `Cc1[nH]c(/C=C2\C(=O)Nc3ccc(S(=O)(=O)N(C)c4cccc(Cl)c4)cc32)c(C)c1C(=O)N1CCN(C)CC1` [UM0127889:02, SU11274], the “Inh (PKA)” value is reported as 71.51%.

Regarding `Nc1ncnc2n[nH]c(Nc3ccc(F)cc3)c12` [UM0127890:04, CGP 57380], the “Inh (PKA)” value was 5.777%.

Regarding `Nc1ccc2ncnc(NCCc3ccc(Oc4ccccc4)cc3)c2c1` [UM0127892:02, QNZ (EVP4593)], the “Inh (PKA)” value came to 24.11%.

`COc1cccc(-c2cc(=O)c3ccccc3o2)c1N` [UM0127895:04, PD98059]: the “Inh (PKA)” value amounted to 12.91%.

Take `Oc1cccc(-c2nc(N3CCOCC3)c3oc4ncccc4c3n2)c1` [UM0127905:03, PI-103]: the “Inh (PKA)” value (Inh (PKA)) came to 4.016%.

Regarding `C[S+]([O-])c1ccc(-c2nc(-c3ccc(F)cc3)c(-c3ccncc3)[nH]2)cc1` (stereo not drawn) [UM0127917:04, SB 203580], under “Inh (PKA)”, the “Inh (PKA)” value is on record as 16.51%.

Consider `c1ccc(-c2[nH]ncc2-c2ccnc3ccccc23)nc1` [UM0127931:02, LY364947], for which the “Inh (PKA)” value is given as 7.119%.

Turning to `N#C/C(=C\c1ccc(O)c(O)c1)C(=O)NCc1ccccc1` [UM0127932:03, AG-490], the “Inh (PKA)” value stood at 36.26%.

Turning to `COc1cc2ncc(-c3ccccc3)nc2cc1OC` [UM0127935:03, Tyrphostin AG 1296], the “Inh (PKA)” value is 8.299%.

For the molecule `Cc1nc(Nc2ncc(C(=O)Nc3c(C)cccc3Cl)s2)cc(N2CCN(CCO)CC2)n1` [UM0127943:04, Dasatinib (BMS-354825)], the “Inh (PKA)” value is listed as 9.592%.

As for `C#Cc1cccc(Nc2ncnc3cc(OCCOC)c(OCCOC)cc23)c1` [UM0127944:02, Erlotinib], the “Inh (PKA)” value (Inh (PKA)) is 7.481%.

Turning to `Cc1cc(C(=O)NOCCO)c(Nc2ccc(I)cc2F)n(C)c1=O` [UM0127946:02, AZD8330], the “Inh (PKA)” value is on record as 1.892%.

With `Cc1ccc(-n2nc(C(C)(C)C)cc2NC(=O)Nc2ccc(OCCN3CCOCC3)c3ccccc23)cc1` [UM0127947:02, BIRB 796 (Doramapimod)], the “Inh (PKA)” value stood at 10.73%.

As to `CCCS(=O)(=O)Nc1ccc(F)c(C(=O)c2c[nH]c3ncc(Cl)cc23)c1F` [UM0127949:04, PLX-4720], the “Inh (PKA)” value is given as 29.68%.

For `CNC(=O)c1cc(Oc2ccc(NC(=O)Nc3ccc(Cl)c(C(F)(F)F)c3)cc2)ccn1` [UM0127950:06, Sorafenib], the “Inh (PKA)” value (Inh (PKA)) is given as 5.105%.

In the case of `Cc1ccc(NC(=O)c2ccc(CN3CCN(C)CC3)cc2)cc1Nc1nccc(-c2cccnc2)n1` [UM0127952:03, Imatinib (STI571)], for the setting “Inh (PKA)”, the “Inh (PKA)” value came to 7.189%.

Regarding `CS(=O)(=O)CCNCc1ccc(-c2ccc3ncnc(Nc4ccc(OCc5cccc(F)c5)c(Cl)c4)c3c2)o1` [UM0127953:02, Lapatinib], for the setting “Inh (PKA)”, the “Inh (PKA)” value was determined as 55.05%.

On to `Cc1ccc(NC(=O)c2ccc(CN3CCN(C)CC3)cc2)cc1Nc1nc(-c2cccnc2)cs1` [UM0127954:03, Masitinib (AB1010)], for which the “Inh (PKA)” value was found to be 15.54%.

With `Cc1cn(-c2cc(NC(=O)c3ccc(C)c(Nc4nccc(-c5cccnc5)n4)c3)cc(C(F)(F)F)c2)cn1` [UM0127956:03, Nilotinib(AMN-107)], the “Inh (PKA)” value is given as 17.26%.

`Cc1ccc(Nc2nccc(N(C)c3ccc4c(C)n(C)nc4c3)n2)cc1S(N)(=O)=O` [UM0127957:02, Pazopanib (GW-786034)]: where the note is “Inh (PKA)”, the “Inh (PKA)” value stood at 11.23%.

Consider `CC[C@H](CO)Nc1nc(NCc2ccccc2)c2ncn(C(C)C)c2n1` [UM0127958:02, Roscovitine (Seliciclib,CYC202)], for which the “Inh (PKA)” value is listed as 10.31%.

Turning to `Cc1cc(Nc2cc(N3CCN(C)CC3)nc(Sc3ccc(NC(=O)C4CC4)cc3)n2)n[nH]1` [UM0127961:02, VX-680 (MK-0457,Tozasertib)], the “Inh (PKA)” value is on record as 9.039%.

Turning to `COc1cc2/c(=N/c3ccc(Br)cc3F)nc[nH]c2cc1OCC1CCN(C)CC1` [UM0127962:02, Vandetanib (ZD6474)], the “Inh (PKA)” value is 5.275%.

Regarding `Clc1ccc(Nc2nnc(Cc3ccncc3)c3ccccc23)cc1` [UM0127963:02, Vatalanib (PTK787) 2HCl], the “Inh (PKA)” value (Inh (PKA)) is given as 26.41%.

Turning to `Clc1ccc(Nc2nnc(Cc3ccncc3)c3ccccc23)cc1` [UM0127963:03, Vatalanib], the “Inh (PKA)” value (Inh (PKA)) was found to be 29.07%.

`NC(=O)c1ccc(N(C(N)=O)c2c(F)cccc2F)nc1-c1ccc(F)cc1F` [UM0127964:03, VX-702]: the “Inh (PKA)” value was 6.199%.

For `Cc1ccc(NC(=O)c2cccc(C(C)(C)C#N)c2)cc1Nc1ccc2ncn(C)c(=O)c2c1` [UM0127965:02, AZ 628], the “Inh (PKA)” value is reported as 24.58%.
